Experimental data reported in paper PMC3432147 (Bioorganic & medicinal chemistry letters, 2012).
≈ marks a conversion by molar mass, not a printed value.

Tests used:
[1] = molecular target: T1, Human sEH (Homo sapiens, UniProt P34913); assay: Inhibition of human sEH, fluorescent substrate assay; format: biochemical
T1 sequence (P34913 1-555): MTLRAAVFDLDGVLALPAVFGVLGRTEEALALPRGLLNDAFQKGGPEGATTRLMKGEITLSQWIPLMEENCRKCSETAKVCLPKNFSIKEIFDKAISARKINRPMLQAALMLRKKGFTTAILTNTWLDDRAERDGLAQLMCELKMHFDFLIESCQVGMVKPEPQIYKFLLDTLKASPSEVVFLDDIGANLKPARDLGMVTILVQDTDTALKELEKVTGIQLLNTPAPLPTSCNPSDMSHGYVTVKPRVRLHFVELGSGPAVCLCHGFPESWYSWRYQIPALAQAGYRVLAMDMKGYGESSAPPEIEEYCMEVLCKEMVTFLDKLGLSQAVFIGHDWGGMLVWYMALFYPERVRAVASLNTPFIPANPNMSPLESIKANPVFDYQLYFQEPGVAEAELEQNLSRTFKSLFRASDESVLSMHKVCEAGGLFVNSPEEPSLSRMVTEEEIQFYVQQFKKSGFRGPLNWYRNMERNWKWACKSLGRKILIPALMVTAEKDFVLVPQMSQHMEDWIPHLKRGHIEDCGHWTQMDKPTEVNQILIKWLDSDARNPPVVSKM

[2] = In vitro metabolic stability in human liver microsomes; conditions: for Stability (% remaining): human liver microsomal protein 0.125 mg, NADPH generating system, 37°C, 60 min, parent by LC-MS/MS, triplicate; for fold improved metabolic stability compared to compound 6: versus compound 6; for fold lower stability compared to compound 13: versus compound 13
[3] = Solubility in water; format: physicochemical; conditions: for fold improved water solubility compared to alkyl substituted inhibitors (4 or 6): versus compounds 4 or 6

## CCOCCOCCOC(=O)CCCNC(=O)NC12CC3CC(CC(C3)C1)C2 [Compound 8]
[1]; versus compounds 4, 5 and 6
  fold reduction in inhibition compared to compounds 4, 5 and 6: 7–17 fold
[2]
  Stability (% remaining): 10 % remaining
[2]; human liver microsomes
  fold improved metabolic stability compared to compound 6: > 2.5 fold
  fold lower stability compared to compound 13: 3 fold

## CCCCC(C)OC(=O)CCCNC(=O)NC12CC3CC(CC(C3)C1)C2 (stereo not drawn) [Compound 5]
[1]; versus compound 4
  fold improvement in inhibition potency compared to compound 4: 2.5 fold

## CCCCC(C#N)OC(=O)CCCNC(=O)NC12CC3CC(CC(C3)C1)C2 (stereo not drawn) [Compound 7]
[1]; versus compounds 5 or 6
  fold decrease in inhibition potency in comparison with methyl (5) or ethyl (6): 3 fold

## CCCCCOC(=O)CCCNC(=O)NC12CC3CC(CC(C3)C1)C2 [Compound 4]
[2]
  Stability (% remaining): <1 % remaining
[2]; human liver microsomes
  metabolism in human liver microsomal incubation: all metabolized to the corresponding butyric acid

## O=C(O)CCCNC(=O)NC12CC3CC(CC(C3)C1)C2 [Compound 3, 4-(3-adamantan-1-yl-ureido)-butyric acid]
[3]; sodium phosphate buffer, pH 7.4
  solubility at 24 h: 7 µg/mL (≈ 25 µM)
[2]
  Stability (% remaining): 97 % remaining
[2]; human liver microsomes
  parent acid determined after microsomal incubation: > 95%

## O=C(NC1CCCC(C(=O)O)C1)NC12CC3CC(CC(C3)C1)C2 (stereo not drawn) [Compound 10, 3-(3-adamantan-1-yl-ureido)-cyclohexylcarboxylic acid]
[2]
  Stability (% remaining): 95 % remaining
[2]; human liver microsomes
  parent acid determined after microsomal incubation: > 95%

## CCCCC(CC)OC(=O)C1CCCC(NC(=O)NC23CC4CC(CC(C4)C2)C3)C1 (stereo not drawn) [Compound 12]
[2]
  Stability (% remaining): 10 % remaining
[2]; human liver microsomes
  fold improved metabolic stability compared to compound 6: 2.5 fold
  fold lower stability compared to compound 13: 3 fold

## CCOCCOCC(OC(=O)CCCNC(=O)NC12CC3CC(CC(C3)C1)C2)c1ccccc1 (stereo not drawn) [Compound 9]
[3]
  fold improved water solubility compared to alkyl substituted inhibitors (4 or 6): 20–45 fold
[2]
  Stability (% remaining): 14 % remaining
[2]; human liver microsomes
  fold improved metabolic stability compared to compound 6: > 2.5 fold
  fold lower stability compared to compound 13: ~2 fold

## CCCCC(CC)OC(=O)CCCNC(=O)NC12CC3CC(CC(C3)C1)C2 (stereo not drawn) [Compound 6]
[2]
  Stability (% remaining): 4 % remaining

## CCOCCOCC(OC(=O)C1CCCC(NC(=O)NC23CC4CC(CC(C4)C2)C3)C1)c1ccccc1 (stereo not drawn) [Compound 13]
[3]
  fold improved water solubility compared to alkyl substituted inhibitors (4 or 6): 20–45 fold
[2]
  Stability (% remaining): 32 % remaining
[2]; human liver microsomes, versus compound 9
  fold improved stability compared to compound 9: ~2 fold
